From patent US8871735B2, “Methods and compositions for providing cardiac protection” (University of Medicine and Dentistry of New Jersey, priority 2008, dated 2014)
Several values for one entry are separate records, joined by “and”; a condition that tells them apart may be missing. Equal values may be shown once. Entries after “also recorded” stand apart in the source; their conditions may differ. Read-outs that look alike come from different tables or passages of the source.

Legend:
[1] = system: H9C2 cells; assay: cAMP accumulation in H9C2 cells; assay type: cell-based; conditions: 5 μM ISO, 3 minutes, 10 μM drug
Excerpt: […] Fludarabine ((+)-2-Fluoro-9-(5-O-phosphono-β-D-arabinofuranosyl)-9H-purin-6-amine) and Cladribine (2-chloro-2′-deoxyadenosine) are anti-cancer drugs, Adefovir (Bis(2,2-dimethylpropanoyloxymethyl)[2-(6-amino-9H-purin-9-yl)ethoxymethyl]phosphonate) and Zidovudine are anti-HIV drugs. Zidovudine-TP is a metabolite of zidovudine which inhibits virus replication. TP; triphosphate. 3-Deazaadenosine, Formycin A (7-Amino-3-(β-D-ribofuranosyl)-1H-pyrazolo[4,3-d]pyrimidine), 2-Far (2-Fluoroadenosine), formycin A ((2S,3R,4S,5R)-2-(7-amino-2H-pyrazolo[5,4-e]pyramidin-3-yl-5-(hydroxymeth-yl)oxolane-3,4-diol), 2-FD (2-Fluoro-2′-deoxyadenosine) and 2′5′ ddAdo (2′5′-dideoxyadenosine) are experimental drugs.
(§1) Mice were anesthetized with 2.5% tribromoethanol (0.010 to 0.015 mL per gram of body weight) injected intraperitoneally, and echocardiography was performed with ultrasonography (ACUSON Sequoia C256, Siemens Medical Solutions, Malvern, Pa.). For acute injection of isoproterenol, forskolin and milrinon, a PE-10 catheter was inserted into the right jugular vein, and drugs were injected at the rate of 1 μl/s. cAMP accumulation assay in H9C2 cells, a cardiac myoblast cell line, was examined as previously described.

[2] = target: type 5 AC (Homo sapiens, UniProt O95622); assay: Double-reciprocal plots of type 5 AC catalytic activity against ATP
Sequence of type 5 AC (O95622 whole entry): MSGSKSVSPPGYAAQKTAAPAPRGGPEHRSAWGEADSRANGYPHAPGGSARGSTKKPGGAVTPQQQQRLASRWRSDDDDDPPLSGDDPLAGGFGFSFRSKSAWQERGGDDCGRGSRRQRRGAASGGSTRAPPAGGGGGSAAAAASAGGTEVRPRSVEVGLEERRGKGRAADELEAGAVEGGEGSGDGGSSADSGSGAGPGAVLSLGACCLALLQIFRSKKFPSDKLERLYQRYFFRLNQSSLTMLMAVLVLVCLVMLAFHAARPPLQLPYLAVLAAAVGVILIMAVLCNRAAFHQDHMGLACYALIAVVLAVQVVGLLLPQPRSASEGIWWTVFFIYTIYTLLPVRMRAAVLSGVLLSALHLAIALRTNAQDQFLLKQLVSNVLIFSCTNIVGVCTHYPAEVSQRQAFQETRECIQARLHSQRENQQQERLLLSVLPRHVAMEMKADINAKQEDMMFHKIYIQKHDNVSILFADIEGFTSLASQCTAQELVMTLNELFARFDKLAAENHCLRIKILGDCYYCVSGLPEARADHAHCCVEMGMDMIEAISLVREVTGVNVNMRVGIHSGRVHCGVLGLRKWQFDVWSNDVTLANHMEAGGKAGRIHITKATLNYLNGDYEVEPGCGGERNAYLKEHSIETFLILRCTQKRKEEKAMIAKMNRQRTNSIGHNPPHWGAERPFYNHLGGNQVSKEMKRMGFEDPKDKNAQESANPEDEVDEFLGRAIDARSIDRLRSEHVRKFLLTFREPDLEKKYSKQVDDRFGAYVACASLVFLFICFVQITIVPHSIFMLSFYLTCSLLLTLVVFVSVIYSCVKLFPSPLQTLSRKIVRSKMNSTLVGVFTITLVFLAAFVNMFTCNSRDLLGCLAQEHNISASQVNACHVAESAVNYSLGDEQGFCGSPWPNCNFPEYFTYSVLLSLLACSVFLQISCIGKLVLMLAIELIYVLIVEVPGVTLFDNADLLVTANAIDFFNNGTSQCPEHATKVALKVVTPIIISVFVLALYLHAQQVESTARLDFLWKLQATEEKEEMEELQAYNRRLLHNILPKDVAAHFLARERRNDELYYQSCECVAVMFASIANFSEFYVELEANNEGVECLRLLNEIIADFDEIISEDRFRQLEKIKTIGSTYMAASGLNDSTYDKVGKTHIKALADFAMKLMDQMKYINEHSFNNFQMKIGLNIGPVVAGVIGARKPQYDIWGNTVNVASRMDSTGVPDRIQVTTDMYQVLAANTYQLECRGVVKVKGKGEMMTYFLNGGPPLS
Experimental: Hearts and striatum were dissected from the mice and membrane preparations were made as previously described. This crude membrane preparation was used in the AC assay. AC activity was measured by a modification of the method of Salomon et al. as previously described. […] Double-reciprocal plots were examined as previously described.

[3] = system: AC5; assay: AC inhibition, recombinant AC proteins: AC5; assay type: biochemical
[4] = system: cardiac myocytes; assay: ISO-induced apoptosis in cultured cardiac myocytes (DNA fragmentation ELISA); assay type: cell-based; conditions: 100 μM ISO, 48 h
Experimental: Cultured cardiac myocytes were incubated with 100 μM ISO in the presence or absence of AC5 inhibitors at the indicated concentrations for 48 h.

[5] = system: C57Bl/6 mice, chronic ISO infusion; assay: Chronic ISO infusion heart failure model; assay type: in vivo, mouse
Excerpt: ISO with or without AC5 inhibitors were chronically infused with osmotic mini-pump implanted subcutaneously at indicated doses for 1 week in c57Bl/6 mice. Mice were then subjected to echocardiography (a) and the hearts were removed and subjected to pathological examinations such as myocardial apoptosis (b) and fibrosis (c). n=4-8.
In C57Bl/6 mice, ISO with or without AC5 inhibitors or metoprolol were chronically infused with an osmotic mini-pump at the indicated doses for 1 week. Mice were then subjected to echocardiography (a) and heart tissue were subjected to a myocardial apoptosis assay (b). *, p<0.01 vs vehicle. #, p<0.05 vs vehicle. .dagger., p<0.01 vs ISO. .dagger-dbl., p<0.05 vs ISO. n=4-15. […] Comparisons between multiple groups were made using ANOVA with post-hoc tests.
Tenofovir diphosphate (PMPA-PP), zidovudine monophosphate (MP), zidovudine diphosphate (PP), zidovudine triphosphate (TP), famciclovir penciclovir and valaciclovir were purchased from Moravek. Formycin A (FMA) and Formycin B (FMB) were purchased from Berry and Associates. All other reagents were from Sigma unless specified. Long-term infusion of isoproterenol (Sigma, St. Louis, Mo.) was performed for 7 days at a dose of 60 mg/kg/d with or without AC5 inhibitors by using a miniosmotic pump (ALZET model 2001, DURECT Corp, Cupertino, Calif.). Control mice received vehicle in pumps. Pumps were removed 24 hours before biochemical and physiological studies. Experiments were performed in 3- to 5-month-old male C57Bl/6, and in AC5Tg transgenic mice. This study was approved by the Animal Care and Use Committee at New Jersey Medical School.
as §1

[6] = target: T1, AC5 (UniProt P30803); assay: AC inhibition, recombinant AC proteins: AC5; assay type: biochemical; conditions: read-out: IC50 for AC5
T1 construct: IC50 AC5; other: recombinant AC proteins; other: THFA: in the presence of Gs-α/GTPαS/forskolin

[7] = system: WT and AC5KO mice; assay: Heart rate and arterial pressure in conscious WT and AC5KO mice; assay type: in vivo, mouse; conditions: for decrease in HR in conscious AC5KO / decrease in HR in conscious WT: 0.01 μg/g (0.01 mg/kg) i.v.
Excerpt: In AC5KO and WT mice, four ECG wires (New England Electric Wire Corporation, Lisbon, N.H., USA) were placed subcutaneously, a silicone elastomer tubing (Cardiovascular Instrument Corp., Wakefield, Mass., USA) was inserted into the right external jugular vein and a 1.4 F micromanometer catheter (Millar Instruments, Inc., Houston, Tex., USA) was inserted into the lower abdominal aorta via the femoral artery as described previously with some modifications. The ECG wires, the silicone elastomer tubing and the micromanometer catheter were tunneled subcutaneously to the back, externalized, and secured in a plastic cap. On the day of the study, each mouse was placed in the mouse holder, the jugular venous catheter was accessed and connected to a microliter syringe (Hamilton Co., Reno, Nev., USA), the 1.4 F micromanometer catheter was connected to a recorder (Dash 4u; Astro-Med, Inc., West Warwick, R.I., USA) and the ECG wires were connected to an ECG amplifier (Gould Inc., Cleveland, Ohio, USA). All experiments were recorded with animals in the conscious state. After at least 6 hours recovery from the implantation of the catheter, when a stable heart rate (HR) was achieved, the baseline ECG and arterial pressure (AP) were recorded for 5 min. Ach (0.05 μg/g) was then administered intravenously (i.v.), and the ECG and AP recording were repeated. A recovery period of 15 min was allowed for the HR and AP to return to baseline before administering the next drug. Baseline HR slowing was examined in response to phenylephrine (0.2 μg i.v.).
Electrocardiogram (ECG) wires, a jugular vein catheter for drug infusion, and a femoral artery catheter for arterial pressure monitoring were implanted under anesthesia. Measurements of left ventricular ejection fraction (LVEF) were taken using echocardiography under anesthesia with 2.5% tribromomethanol (0.010-0.015 ml/g body wt) injected intraperitoneally (i.p.). Intravenous (i.v.) infusion of ISO (0.04 μg/kg/min i.v. for 5 min) was performed using an infusion pump. To examine the responses to a muscarinic agonist, acetylcholine (ACh) (25 mg/kg i.p.) was co-administered i.p. during the i.v. infusion of ISO (0.04 μg/kg/min). In addition, in conscious mice ACh (0.01 and 0.05 mg/kg), atropine (0.25, 1 and 2 mg/kg), or verapamil (0.75 mg/kg) were administered i.v., and the ECG was recorded. A recovery period of 15 min was allowed for the HR to return to baseline before administering the next drug. To examine HR responses to baroreflex hypertension, phenylephrine (0.2 mg/kg i.v.) was infused, and the ECG and arterial pressure were measured.

[8] = system: AC; assay: AC activity in heart membranes from WT and AC5KO mice; assay type: biochemical, mouse
Experimental: Protein concentration was measured by the method of Bradford using bovine serum albumin as a standard. AC activity was measured as described previously. AC activity was linear within the incubation time up to 30 min. In order to harvest hearts for tissue cAMP content measurements, mice were allowed to acclimate to the surroundings in the laboratory for an hour before sacrifice. Freshly isolated hearts were briefly immersed in liquid nitrogen. The tissue was homogenized in ice-cold 6% percholic acid, and cAMP was extracted as described before. The concentration of cAMP was determined with an RIA kit (PerkinElmer Life Sciences, Boston, Mass., USA).
cAMP production in membranes from the hearts of AC5KO and WT at 6 months of age was examined. The steady state AC activity was determined as the maximal capacity of cAMP production in the presence of ISO (100 μM ISO+100 μM GTP), GTPγS (100 μM) or forskolin (100 μM). […] Basal cardiac function was not decreased, but the response to ISO and muscarinic inhibition of ISO were attenuated.
Protein concentration was measured by the Bradford method using bovine serum albumin as a standard. AC activity was measured as described previously. AC activity was linear within the incubation time up to 30 min. For the study of Ca^2+ inhibition, the membranes were treated first with EGTA to extract the endogenous Ca^2+ prior to the assay. Free Ca^2+ concentrations were obtained with the use of 200 μmol/L EGTA buffers as described previously. The experiments with Ca^2+ inhibition were conducted in the presence of 100 μmol/L isoproterenol (ISO) plus 100 μmol/L GTP.
cAMP production in membranes from the hearts of AC5KO and WT mice at the age of 6 months were examined. The steady state AC activity in the membrane preparation was determined as the maximal capacity of cAMP production in the presence of ISO ([…], ISO+100 μmol/L GTP), guanosine-5′-O-(3-triophosphate) GTP[…]S (100 μmol/L), or forskolin (100 μmol/L). AC activity was decreased in AC5KO relative to that of WT by 35+/−4% (basal), 27+/−5% (ISO), 27+/−2% (GTPγS), and 40+/−5% (forskolin).

For `Cc1cn([C@H]2C[C@H](N=[N+]=[N-])[C@@H](COP(=O)(O)OP(=O)(O)OP(=O)(O)O)O2)c(=O)[nH]c1=O` [zidovudine-TP, zidovudine triphosphate], the “inhibition of cAMP accumulation in H9C2 cells” value (“inhibition of cAMP accumulation” below) [1] was “little inhibition” and the “mode of inhibition with respect to ATP” value [2] was “competitive”.

For `C[C@H]1O[C@@H](n2cnc3c(N)ncnc32)C[C@@H]1O` [2′5′-dd-Ado, 2′5′-dideoxyadenosine], the “Selectivity ratio for AC5, AC5/AC2” value ([3]; ratio of IC50 for AC5 to that for AC2) was 0.00067, the “Selectivity ratio for AC5, AC5/AC3” value ([3]; ratio of IC50 for AC5 to that for AC3) was 0.0063 and the “inhibition of cAMP accumulation” value [1] was “greatest inhibition”. For the same compound, the “ISO-induced apoptosis in cultured cardiac myocytes” value [4] was “abolished”, the “ISO-induced decrease in LVEF (and FS)” value ([5]; ISO 60 mg/kg/d 7 days, Ara-Ade 20 and 100 mg/kg/day, 2′5′ ddAdo 20 mg/kg/day) was “rescued LVEF and FS reduction” and the ISO-induced cardiac fibrosis ([5]; chronic ISO infusion) was “significantly inhibited”. For the same compound, the “ISO-induced myocardial apoptosis in vivo” value ([5]; chronic ISO infusion) was “significantly inhibited”, the “ISO-induced wall thickening (DESP, DPW)” value ([5]; chronic ISO infusion) was “neither Ara-Ade nor 2′5′ ddAdo inhibited” and the “LVW/BW and myocyte cross sectional area” value ([5]; chronic ISO infusion) was “increased”. The “mode of inhibition with respect to ATP” value [2] was “non-competitive”.

For `Nc1ncnc2c1ncn2[C@@H]1O[C@H](CO)[C@@H](OP(=O)(O)O)[C@H]1O` [3′-AMP], the IC50 ([6]; THFA: in the presence of Gs-α/GTPαS/forskolin) was 14.6 µM.

In the case of `CC(=O)OCC[N+](C)(C)C` [ACh, acetylcholine], the “decrease in HR in conscious AC5KO” value ([7]; AC5KO) is reported as 1.3%, the “decrease in HR in conscious AC5KO” value ([7]; AC5KO, listed as Ach) is reported as 7.5% and the “decrease in HR in conscious WT” value ([7]; WT) is reported as 15%. The “decrease in HR in conscious WT” value ([7]; WT, listed as Ach) was 22%.

`Nc1nc(F)nc2c1ncn2[C@@H]1O[C@H](CO)[C@@H](O)[C@H]1O` [2-fluoroadenosine, 2-Fluoroadenosine] was tested, and the “inhibition of cAMP accumulation” value [1] was “moderately inhibited” and the “mode of inhibition with respect to ATP” value [2] was “non-competitive”.

With `Nc1nc(Cl)nc2c1ncn2[C@H]1C[C@H](O)[C@@H](CO)O1` [cladribine, 2-chloro-2′-deoxyadenosine] the “inhibition of cAMP accumulation” value [1] was “slight inhibition”.

`CC(Cn1cnc2c(N)ncnc21)OCP(=O)(O)OP(=O)(O)OP(=O)(O)O` (stereo in doubt) [PMPA-PP, Tenofovir diphosphate] was tested, and the “inhibition of cAMP accumulation” value [1] was “little inhibition”.

`COc1ccc(CCN(C)CCCC(C#N)(c2ccc(OC)c(OC)c2)C(C)C)cc1OC` (centres unmarked) [verapamil] was tested, and the “change in HR in AC5KO” value ([7]; 0.75 mg/kg i.v., AC5KO) was −33+/−10 beats/min and the “change in HR in WT” value ([7]; 0.75 mg/kg i.v., WT) was −36+/−10 beats/min.

In the case of `CN1[C@@H]2CC[C@H]1C[C@@H](OC(=O)C(CO)c1ccccc1)C2` (some centres unmarked) [atropine], the “increase in HR in AC5KO” value ([7]; 1 μg/g i.v., AC5KO) is reported as 19+/−7.5 beats/min and the “increase in HR in WT” value ([7]; 1 μg/g i.v., WT) is reported as 102+/−22.2 beats/min.

`Nc1ncnc2c([C@@H]3O[C@H](CO)[C@@H](O)[C@H]3O)n[nH]c12` [FMA, 7-Amino-3-(β-D-ribofuranosyl)-1H-pyrazolo[4,3-d]pyrimidine] was tested, and the “inhibition of cAMP accumulation” value [1] was “moderately inhibited”.

`CC(C)NCC(O)c1ccc(O)c(O)c1` (centres unmarked) [ISO, isoproterenol] was tested, and the “increase in AC activity in AC5KO” value ([8]; 100 μmol/L ISO + 100 μmol/L GTP, AC5KO) was 64+/−4 pmol/15 min/mg and the “increase in AC activity in WT” value ([8]; 100 μmol/L ISO + 100 μmol/L GTP, WT) was 78+/−6 pmol/15 min/mg.

`C[N+](C)(C)CCOC(N)=O` [Carbachol] was tested, and the “inhibition of ISO-stimulated AC activity in AC5KO” value ([8]; 10 μM, AC5KO heart membranes) was “did not inhibit; also recorded: hardly detectable” and the “decrease of ISO-stimulated AC activity in WT” value ([8]; 10 μM, WT heart membranes) was 21+/−3.4% and 21+/−3%.

In the case of `CNC[C@H](O)c1cccc(O)c1` [Phenylephrine], the systolic arterial pressure ([7]; 0.2 μg/g (0.2 mg/kg) i.v., WT and AC5KO) is reported as “increased systolic arterial pressure significantly in both WT and AC5KO; also recorded: increased systolic arterial pressure similarly in both WT and AC5KO”.

In the case of `Nc1ncnc2c1ncn2[C@H]1C[C@H](OP(=O)(O)O)[C@@H](CO)O1` [2′-d-3′-AMP], the IC50 [6] is reported as 0.82 µM.
